# Experimental data as given in PMC6044835, “Expression, Purification, and Biochemical Characterization of the Flavocytochrome P450 CYP505A30 from Myceliophthora thermophila” (ACS Omega, 2017).
# Where two headings read alike, the source gives them in different places.
# Tests used:
# heme domain = target: T1, heme domain (Thermothelomyces thermophilus, UniProt G2QDZ3); experiment: UV-visible spectral binding titration of fatty acid substrates (type I heme Soret shift) to ca. 4-6 uM enzyme in 50 mM potassium phosphate pH 7.0 at 25 °C, hyperbolic or Morrison fit.
# T1 construct: gene MYCTH_101224; heme domain, amino acids 1-464 (stop codon at Gly465, named D464X), N-terminal hexahistidine tag (pET15b), expressed in E. coli
# T1 sequence (G2QDZ3 1-464): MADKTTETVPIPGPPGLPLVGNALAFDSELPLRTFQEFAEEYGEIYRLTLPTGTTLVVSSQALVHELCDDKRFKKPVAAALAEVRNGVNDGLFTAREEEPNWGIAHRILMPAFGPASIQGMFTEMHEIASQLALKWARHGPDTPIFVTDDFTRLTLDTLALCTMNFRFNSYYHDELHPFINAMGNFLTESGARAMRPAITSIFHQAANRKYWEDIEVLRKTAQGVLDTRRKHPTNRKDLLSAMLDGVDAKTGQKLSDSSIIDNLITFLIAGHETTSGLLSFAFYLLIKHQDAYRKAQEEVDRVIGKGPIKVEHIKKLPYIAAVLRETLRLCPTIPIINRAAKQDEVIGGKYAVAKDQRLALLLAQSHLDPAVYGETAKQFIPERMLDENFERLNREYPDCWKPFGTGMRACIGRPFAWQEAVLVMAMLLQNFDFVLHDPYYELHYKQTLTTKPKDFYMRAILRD
# CYP505A30 [1] = target: T2, CYP505A30 (Thermothelomyces thermophilus, UniProt G2QDZ3); experiment: as above; set-up: gene MYCTH_101224; intact CYP505A30, amino acids 1-1080, N-terminal hexahistidine tag (pET15b), expressed in E. coli
# T2 sequence (G2QDZ3 entry or part of it): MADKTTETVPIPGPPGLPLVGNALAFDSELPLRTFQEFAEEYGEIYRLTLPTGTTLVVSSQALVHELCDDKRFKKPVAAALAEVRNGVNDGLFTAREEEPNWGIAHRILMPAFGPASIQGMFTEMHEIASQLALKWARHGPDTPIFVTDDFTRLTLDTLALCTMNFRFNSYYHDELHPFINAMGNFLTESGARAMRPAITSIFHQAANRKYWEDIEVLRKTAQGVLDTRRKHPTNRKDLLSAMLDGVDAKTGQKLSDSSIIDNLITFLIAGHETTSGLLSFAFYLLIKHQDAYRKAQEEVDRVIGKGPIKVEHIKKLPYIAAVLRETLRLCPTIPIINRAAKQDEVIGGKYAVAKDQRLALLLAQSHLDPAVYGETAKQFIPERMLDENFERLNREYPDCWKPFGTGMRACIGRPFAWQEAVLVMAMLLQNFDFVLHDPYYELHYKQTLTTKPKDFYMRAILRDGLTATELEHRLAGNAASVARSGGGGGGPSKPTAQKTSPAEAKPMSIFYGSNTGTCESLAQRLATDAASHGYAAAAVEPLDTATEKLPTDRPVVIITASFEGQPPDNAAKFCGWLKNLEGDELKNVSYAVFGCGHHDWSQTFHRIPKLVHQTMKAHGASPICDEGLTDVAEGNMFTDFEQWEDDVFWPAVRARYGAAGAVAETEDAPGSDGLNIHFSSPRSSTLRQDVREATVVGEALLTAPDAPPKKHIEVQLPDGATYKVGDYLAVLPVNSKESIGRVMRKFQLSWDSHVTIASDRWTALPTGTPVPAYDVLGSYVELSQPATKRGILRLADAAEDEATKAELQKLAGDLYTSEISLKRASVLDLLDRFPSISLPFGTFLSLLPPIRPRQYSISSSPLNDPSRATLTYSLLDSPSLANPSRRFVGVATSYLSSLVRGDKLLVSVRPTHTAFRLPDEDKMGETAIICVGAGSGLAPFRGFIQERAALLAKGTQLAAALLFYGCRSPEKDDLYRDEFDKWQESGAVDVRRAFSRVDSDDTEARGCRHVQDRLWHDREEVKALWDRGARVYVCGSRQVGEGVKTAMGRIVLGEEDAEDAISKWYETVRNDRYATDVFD
# CYP505A30 heme domain [2] = target: T3, CYP505A30 heme domain (Thermothelomyces thermophilus, UniProt G2QDZ3); experiment: UV–visible spectral binding titration with CYP505A30 heme domain
# CYP505A30 [3] = target: T2, CYP505A30; experiment: UV–visible spectral binding titration with intact CYP505A30; details: for Kd: substrate binding to intact CYP505A30, heme absorbance change, 25 °C
# CYP505A30 [4] = target: T2, CYP505A30
# CYP505A1 [5] = experiment: CYP505A1 dodecanoic acid oxidation product distribution (literature); type: biochemical, Fusarium oxysporum; details: CYP505A1, from literature values
# CYP505A30 [6] = target: T2, CYP505A30; remark: listed apart in the source
# P450 BM3 [7] = test system: P450 BM3; set-up: method as in PMID 1727637; details: cited from earlier work
# CYP505A30 heme domain [8] = target: T3, CYP505A30 heme domain
# CYP505A1 [9] = test system: CYP505A1; set-up: method as in PMID 11985584; details: cited from earlier work
# P450 BM3 [10] = details: cited from earlier work
# CYP505A30 heme domain [11] = target: T3, CYP505A30 heme domain; details: arachidonic acid-bound heme domain, vs NHE
# rat CPR = details: cited from earlier work
# [12] = target: Desulfovibrio vulgaris flavodoxin; details: D. vulgaris flavodoxin; cited from earlier work
# [13] = target: FMN (flavodoxin-like) domain of human reductase; set-up: method as in PMID 6778861, PMID 11695890, PMID 12600198; details: cited from earlier work
# [14] = test system: FMN (flavodoxin-like) domain of P450 BM3 reductase; set-up: method as in PMID 6778861, PMID 11695890, PMID 12600198; details: cited from earlier work
smiles,measurement,setting,value
"CCCCCCCCCCCCCCCC(=O)NCC(=O)O [N-palmitoylglycine (NPG), N-palmitoylglycine]",Kd,heme domain,2700 ± 800 nM
same,Kd,CYP505A30 [1],5400 ± 100 nM
CCCCCCCCCCCC(=O)O [dodecanoic acid],Kd,CYP505A30 heme domain [2],9000 ± 900 nM
same,Kd,CYP505A30 [3],6100 ± 400 nM
same,HS (%),CYP505A30 [4],10%
same,ratio ω-1/ω-2 hydroxylated products,CYP505A1 [5],1.5
same,ratio ω-1/ω-2 hydroxylated products,CYP505A30 [6]; CYP505A30,8.8
same,ω-1 hydroxylated product proportion,"CYP505A30 [6]; CYP505A30, GC–MS",88%
same,ω-2 hydroxylated product proportion,"CYP505A30 [6]; CYP505A30, GC–MS",~10%
same,ω-3 hydroxylated product proportion,"CYP505A30 [6]; CYP505A30, GC–MS",2%
same,ω-1 hydroxylated product proportion,"CYP505A30 [6]; CYP505A30, GC–MS, listed as lauric acid",approximately 88%
same,ω-1 hydroxylated product proportion,P450 BM3 [7],48%
same,ω-2 hydroxylated product proportion,P450 BM3 [7],26%
same,ω-3 hydroxylated product proportion,P450 BM3 [7],26%
same,HS (%),CYP505A30 heme domain [8],60%
same,ω-1 hydroxylated product proportion,CYP505A1 [9],~55%
same,ω-2 hydroxylated product proportion,CYP505A1 [9],~37%
same,ω-3 hydroxylated product proportion,CYP505A1 [9],~8%
CCCCC/C=C\C/C=C\C/C=C\C/C=C\CCCC(=O)O [arachidonic acid],Kd,CYP505A30 heme domain [2],120 ± 10 nM
same,HS (%),"CYP505A30 heme domain [2]; extent of HS heme iron accumulated, heme domain, estimated to nearest 5%",65%
same,Kd,CYP505A30 [3],1700 ± 100 nM
same,HS (%),"CYP505A30 [3]; extent of HS heme iron accumulated, intact CYP505A30, estimated to nearest 5%",60%
same,kcat,"P450 BM3 [10]; P450 BM3, similar conditions",285 ± 32 s^–1
same,rate constant of oxidation,P450 BM3 [10]; P450 BM3,> 17 000 min^–1
same,heme Fe^III/Fe^II midpoint potential E^0′,CYP505A30 heme domain [11],−69 ± 3 mV
"Cc1cc2nc3c(=O)[nH]c(=O)nc-3n(C[C@H](O)[C@H](O)[C@H](O)COP(=O)(O)OP(=O)(O)OC[C@H]3O[C@@H](n4cnc5c(N)ncnc54)[C@H](O)[C@@H]3O)c2cc1C [FAD, flavin adenine dinucleotide]",binding,rat CPR,subnanomolar
"Cc1cc2nc3c(=O)[nH]c(=O)nc-3n(C[C@H](O)[C@H](O)[C@H](O)COP(=O)(O)O)c2cc1C [FMN, flavin mononucleotide]",Kd,[12],2.4 nM
same,Kd,[13],42 ± 7 nM
same,Kd,[14],86 ± 14 nM
